Test results published in patent US6380198B1 (Laboratoire Medidom S.A., priority 1997, dated 2002).
Values joined by “and” are separate entries in the source; they are usually repeats but may differ in a detail not shown here. Equal entries are not always repeated.

Legend:
[1] = system: intraocular pressure of rabbits showing normal baseline intraocular pressure; assay: Intraocular pressure in rabbits with normal intraocular pressure after topical instillation; format: in vivo, rabbit (Vienna Blue, pigmented); settings: for Intraocular pressure (mmHg) at the time (min): 30, average ± S.D. / Intraocular pressure (mmHg) at the time (min): 60, average ± S.D. / Intraocular pressure (mmHg) at the time (min): 90, average ± S.D. / Intraocular pressure (mmHg) at the time (min): 120, average ± S.D. / Intraocular pressure (mmHg) at the time (min): 180, average ± S.D. / Intraocular pressure (mmHg) at the time (min): 240, average ± S.D. / Intraocular pressure (mmHg) at the time (min): 0, average ± S.D. / Intraocular pressure (mmHg) at the time (min): 30 / Intraocular pressure (mmHg) at the time (min): 60 / Intraocular pressure (mmHg) at the time (min): 90 / Intraocular pressure (mmHg) at the time (min): 120 / Intraocular pressure (mmHg) at the time (min): 180 / Intraocular pressure (mmHg) at the time (min): 240 / Intraocular pressure (mmHg) at the time (min): 0: Table 1, 50 μl eye-drops: 0.050% flunarizine, 0.056% verapamil, 0.051% diltiazem, 0.043% nifedipine; for Intraocular pressure (mmHg) at the time (min): 30, average ± S.D. / Intraocular pressure (mmHg) at the time (min): 60, average ± S.D. / Intraocular pressure (mmHg) at the time (min): 90, average ± S.D. / Intraocular pressure (mmHg) at the time (min): 120, average ± S.D. / Intraocular pressure (mmHg) at the time (min): 180, average ± S.D. / Intraocular pressure (mmHg) at the time (min): 240, average ± S.D. / Intraocular pressure (mmHg) at the time (min): 0, average ± S.D.: average ± S.D. of 4 rabbits; for Intraocular pressure (mmHg) at the time (min): 30, average ± S.D. / Intraocular pressure (mmHg) at the time (min): 30: 30 min after instillation; for Intraocular pressure (mmHg) at the time (min): 60, average ± S.D. / Intraocular pressure (mmHg) at the time (min): 60: 60 min after instillation; for Intraocular pressure (mmHg) at the time (min): 90, average ± S.D. / Intraocular pressure (mmHg) at the time (min): 90: 90 min after instillation; for Intraocular pressure (mmHg) at the time (min): 120, average ± S.D. / Intraocular pressure (mmHg) at the time (min): 120: 120 min after instillation; for Intraocular pressure (mmHg) at the time (min): 180, average ± S.D. / Intraocular pressure (mmHg) at the time (min): 180: 180 min after instillation; for Intraocular pressure (mmHg) at the time (min): 240, average ± S.D. / Intraocular pressure (mmHg) at the time (min): 240: 240 min after instillation; for Intraocular pressure (mmHg) at the time (min): 0, average ± S.D. / Intraocular pressure (mmHg) at the time (min): 0: time 0 = 15 min before instillation (baseline); for Intraocular pressure (mmHg) at the time (min): 30 / Intraocular pressure (mmHg) at the time (min): 60 / Intraocular pressure (mmHg) at the time (min): 90 / Intraocular pressure (mmHg) at the time (min): 120 / Intraocular pressure (mmHg) at the time (min): 180 / Intraocular pressure (mmHg) at the time (min): 240 / Intraocular pressure (mmHg) at the time (min): 0: individual rabbit, right eye
Description: The effects of the agent of the invention on the intraocular pressure of rabbits showing normal baseline intraocular pressure were evaluated in comparison with the action of a placebo, and with that of various other calcium channel blocking agents. Female pigmented rabbits of the Vienna Blue strain were used (supplied by Charles River Italiana, of Calco (CO)). The age of the animals at the time of starting the experimentation was 9 weeks, and their weight was 2.0-2.5 kg.
The choice of a species with pigmented iris is due to the fact that the latter represents a reliable model for the evaluation of possible modifications of the intraocular pressure caused by the products under test. The strain chosen is genetically defined, so as to limit to a minimum the variability of the biological characteristics between one animal and the other.
The animals were kept in rooms maintained under constant and controlled conditions of temperature and humidity, illuminated for 12 hours a day with artificial light and with continuous renovation of the air. The feed consisted of a standard diet having a constant and known composition, and both feed and water were available ad libitum during the whole period of the test. The rabbits were stabled for 21 days before starting the test, so as to allow a sufficient acclimatation and to suitably evaluate the health conditions of the rabbits. Each experimental group consisted of 4 animals, which were allotted to the treatment groups in a randomised way.
Each different group of animals received, by instillation in the right conjunctival fornix, 50 μl of the following products:
The weight concentrations of the various agents under test are chosen so as to correspond to the same molar concentration.
The pressure in the treated eye was measured by flattening tonometer (TonopenXL®, Mentor), 15 minutes before the instillation of the eyerops (time 0) and then 30, 60, 90, 120, 180 and 240 minutes after. As a local anaesthetic, 5 minutes before carrying out each measurement 25 μl of a commercial ophthalmic solution containing 0.4% oxybuprocaine hydrochloride (Novesine®, Sandoz) was instilled. To carry out the measurement the rabbits were placed in a suitably designed cage, that prevents any sudden movement of the animal under test.
For each animal and at each of the times listed above the average of three subsequent measurements was calculated and recorded, each one said measurements being made after 1 minute from the previous one. The intraocular pressure values at the various times were compared with the values obtained before the treatment, by means of the Student's “t” test. The comparisons between different groups were made by processing the data by the variance analysis (ANOVA) and, where possible, by the Student's “t” test for the comparison of two different experimental groups. Values of p<0.05 were considered to be statistically significant.

[2] = system: intraocular pressure of rabbits with ocular hypertension; assay: Intraocular pressure in rabbits with ocular hypertension induced by α-chymotrypsin; format: in vivo, rabbit (Vienna Blue, pigmented); settings: for Intraocular pressure (mmHg) at the time (min): 30, average ± S.D. / Intraocular pressure (mmHg) at the time (min): 60, average ± S.D. / Intraocular pressure (mmHg) at the time (min): 90, average ± S.D. / Intraocular pressure (mmHg) at the time (min): 120, average ± S.D. / Intraocular pressure (mmHg) at the time (min): 180, average ± S.D. / Intraocular pressure (mmHg) at the time (min): 240, average ± S.D. / Intraocular pressure (mmHg) at the time (min): 0, average ± S.D. / Intraocular pressure (mmHg) at the time (min): 30 / Intraocular pressure (mmHg) at the time (min): 60 / Intraocular pressure (mmHg) at the time (min): 90 / Intraocular pressure (mmHg) at the time (min): 120 / Intraocular pressure (mmHg) at the time (min): 180 / Intraocular pressure (mmHg) at the time (min): 240 / Intraocular pressure (mmHg) at the time (min): 0: Table 3, hypertensive rabbits, 50 μl eye-drops: 0.050% flunarizine, 0.056% verapamil, 0.051% diltiazem, 0.043% nifedipine; for Intraocular pressure (mmHg) at the time (min): 30, average ± S.D. / Intraocular pressure (mmHg) at the time (min): 60, average ± S.D. / Intraocular pressure (mmHg) at the time (min): 90, average ± S.D. / Intraocular pressure (mmHg) at the time (min): 120, average ± S.D. / Intraocular pressure (mmHg) at the time (min): 180, average ± S.D. / Intraocular pressure (mmHg) at the time (min): 240, average ± S.D. / Intraocular pressure (mmHg) at the time (min): 0, average ± S.D.: average ± S.D. of 4 rabbits; for Intraocular pressure (mmHg) at the time (min): 30, average ± S.D. / Intraocular pressure (mmHg) at the time (min): 30: 30 min after instillation; for Intraocular pressure (mmHg) at the time (min): 60, average ± S.D. / Intraocular pressure (mmHg) at the time (min): 60: 60 min after instillation; for Intraocular pressure (mmHg) at the time (min): 90, average ± S.D. / Intraocular pressure (mmHg) at the time (min): 90: 90 min after instillation; for Intraocular pressure (mmHg) at the time (min): 120, average ± S.D. / Intraocular pressure (mmHg) at the time (min): 120: 120 min after instillation; for Intraocular pressure (mmHg) at the time (min): 180, average ± S.D. / Intraocular pressure (mmHg) at the time (min): 180: 180 min after instillation; for Intraocular pressure (mmHg) at the time (min): 240, average ± S.D. / Intraocular pressure (mmHg) at the time (min): 240: 240 min after instillation; for Intraocular pressure (mmHg) at the time (min): 0, average ± S.D. / Intraocular pressure (mmHg) at the time (min): 0: time 0 = 15 min before instillation (baseline); for Intraocular pressure (mmHg) at the time (min): 30 / Intraocular pressure (mmHg) at the time (min): 60 / Intraocular pressure (mmHg) at the time (min): 90 / Intraocular pressure (mmHg) at the time (min): 120 / Intraocular pressure (mmHg) at the time (min): 180 / Intraocular pressure (mmHg) at the time (min): 240 / Intraocular pressure (mmHg) at the time (min): 0: individual rabbit, right eye
Description: Rabbits of the same type as those described in the previous section were used for the following tests.
In the rabbit, the injection of this enzyme in the posterior chamber causes, after one month from the administration, an effect of ocular hypertension.
At the end of the quarantine period the rabbits were anaesthetised by intramuscular administration of ketamine hydrochloride and xylazine hydrochloride (RBI). The right eye was gently pushed outwardly after instilling 25 μl of Novesine® eye-drops, containing oxybuprocaine as an anaesthetic; then, a sterile solution of σ-chymotrypsin (SIGMA, Milan; 150 units in 100 μl of physiologic sterile solution) was injected in the posterior chamber of the right eye by means of a 30G sterile needle. After the administration of the enzyme, the eye was thoroughly washed with physiologic sterile solution in order to remove any traces of α-chymotrypsin which could damage the ocular tissues. Then, 2 drops of a commercial ophthalmic antibiotic solution (Colbiocin®, SIFI S.p.A., containing chloramphenicol, rolitetracycline, colistin methanesulphonate) were instilled. The treatment was carried out 3 times a day (at 8.00 a.m., 12.00 a.m. and 6.00 p.m.) for one week after the administration of α-chymotrypsin. The rabbits were employed in the tests after one month from the induction of ocular hypertension by means of the enzyme.
The rabbits, divided also in this case in groups of 4 animals, were treated by instillation of 50 μl of the product under test in the right conjunctival fornix.
The intraocular pressure in the treated eye was measured, according to the same procedure as in the previous tests, 15 minutes before the instillation of the eye-drops and 30, 60, 90, 120, 180 and 240 minutes after. The values obtained were statistically analysed according to the criteria mentioned in the foregoing.
The experimental conditions were exactly the same as before.

[3] = molecular target: T1, σ-1 receptors (Oryctolagus cuniculus, UniProt G1SD54); assay: Inhibition of 3H(+)-N-allyl-nor-methazocine binding to irido-ciliary body membranes; design: species or system rabbit (New Zealand albino); settings: rabbit irido-ciliary body P2 membranes, 300 μg protein, 37° C., 150 minutes, duplicate
T1 construct: cell membranes obtained from the irido-ciliary body complex; from tissue; host or cells: rabbit irido-ciliary body, P2 membrane fraction
T1 sequence (G1SD54 1-223): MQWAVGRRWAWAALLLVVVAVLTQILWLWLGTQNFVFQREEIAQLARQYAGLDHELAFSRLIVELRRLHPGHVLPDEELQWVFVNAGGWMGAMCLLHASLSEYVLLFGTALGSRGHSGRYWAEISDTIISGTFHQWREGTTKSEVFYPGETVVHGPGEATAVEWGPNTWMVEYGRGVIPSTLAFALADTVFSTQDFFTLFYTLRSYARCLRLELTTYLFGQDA
Description: The receptor binding technique was carried out on cell membranes obtained from the irido-ciliary body complex explanted, after sacrifice, from male albino rabbits of the New Zealand strain (Charles River Italiana, of Calco (CO)). The tissue was homogenised in buffer and the P2, fraction, rich in cell membrane proteins, was isolated. […] The La total protein concentration was determined with the Lowry method.
The non specific binding was evaluated in presence of haloperidol.
All tests were carried out in duplicate. The reaction was maintained at 37° C. for 150 minutes, followed by filtration on WhatmannGF/B filters. The radioactivity left on the filters was measured by liquid scintillation spectrometry.

[4] = system: intraocular pressure; settings: Payene et al. 1990; cited from earlier work
[5] = system: cornea (corneal thickness); settings: rabbit, in vivo
Description: The evaluation of the thickness of the cornea was carried out ecographically by means of a UBM System 840 (Humphrey Instruments, San Leandro, Calif., USA). […] The software incorporated allows to modify the focalisation depth of the ultrasound beam, and to capture the image while varying its amplification.
The animals employed in this test were of the same type as those described in the foregoing, and were treated in the same way. The test was carried out, after having anaesthetised the animal (with ketamine hydrochloride and xylazine hydrochloride), by placing into contact with the eyeball tiny cups filled in with a coupling means (ultrasound gel).

[6] = 50 μl eye-drops, 0.050% flunarizine, equimolar comparators, 0.5% timolol

| SMILES | Intraocular pressure (mmHg) at the time (min): 30, average ± S.D. [1] [mmHg] | Intraocular pressure (mmHg) at the time (min): 60, average ± S.D. [1] [mmHg] | Intraocular pressure (mmHg) at the time (min): 90, average ± S.D. [1] [mmHg] | Intraocular pressure (mmHg) at the time (min): 120, average ± S.D. [1] [mmHg] | Intraocular pressure (mmHg) at the time (min): 180, average ± S.D. [1] [mmHg] | Intraocular pressure (mmHg) at the time (min): 240, average ± S.D. [1] [mmHg] | Intraocular pressure (mmHg) at the time (min): 0, average ± S.D. [1] [mmHg] | Intraocular pressure (mmHg) at the time (min): 30 [1] | Intraocular pressure (mmHg) at the time (min): 60 [1] | Intraocular pressure (mmHg) at the time (min): 90 [1] | Intraocular pressure (mmHg) at the time (min): 120 [1] | Intraocular pressure (mmHg) at the time (min): 180 [1] | Intraocular pressure (mmHg) at the time (min): 240 [1] | Intraocular pressure (mmHg) at the time (min): 0 [1] | Intraocular pressure (mmHg) at the time (min): 30, average ± S.D. [2] [mmHg] | Intraocular pressure (mmHg) at the time (min): 60, average ± S.D. [2] [mmHg] | Intraocular pressure (mmHg) at the time (min): 90, average ± S.D. [2] [mmHg] | Intraocular pressure (mmHg) at the time (min): 120, average ± S.D. [2] [mmHg] | Intraocular pressure (mmHg) at the time (min): 180, average ± S.D. [2] [mmHg] | Intraocular pressure (mmHg) at the time (min): 240, average ± S.D. [2] [mmHg] | further results |
| --- | --- | --- | --- | --- | --- | --- | --- | --- | --- | --- | --- | --- | --- | --- | --- | --- | --- | --- | --- | --- | --- |
| COc1ccc([C@@H]2Sc3ccccc3N(CCN(C)C)C(=O)[C@@H]2OC(C)=O)cc1 [diltiazem] | 15.2 ± 1.2 | 14.7 ± 0.9 | 14.7 ± 0.9 | 15 ± 0.5 | 16.2 ± 0.95 | 16 ± 0.6 | 16.7 ± 1.5 | 14 mmHg and 15 mmHg (2×) and 17 mmHg | 14 mmHg (2×) and 17 mmHg and 13 mmHg | 14 mmHg (2×) and 16 mmHg and 15 mmHg | 15 mmHg (2×) and 16 mmHg (2×) | 15 mmHg and 16 mmHg and 17 mmHg (2×) | 16 mmHg (2×) and 17 mmHg (2×) | 15 mmHg and 16 mmHg and 18 mmHg (2×) | 49.5 ± 5.80 | 47.5 ± 5.80 | 48.2 ± 5.90 | 49.5 ± 5.68 | 49.0 ± 5.71 | 48.7 ± 6.13 | Effect on intraocular pressure in rabbits with normal pressure, in words [1, 6]: neither the verapamil formulation nor the diltiazem formulation, both using the same vehicle as MEG 01, did produce any intraocular pressure decrease; Effect on intraocular pressure in rabbits with ocular hypertension, in words [2, 6]: do not show any significant reduction; Intraocular pressure (mmHg) at the time (min): 0, average ± S.D. [2]: 49.0 ± 5.71 mmHg; Intraocular pressure (mmHg) at the time (min): 30 [2]: 55 mmHg and 53 mmHg and 48 mmHg and 42 mmHg; Intraocular pressure (mmHg) at the time (min): 60 [2]: 53 mmHg and 51 mmHg and 46 mmHg and 40 mmHg; Intraocular pressure (mmHg) at the time (min): 90 [2]: 54 mmHg and 52 mmHg and 46 mmHg and 41 mmHg; Intraocular pressure (mmHg) at the time (min): 120 [2]: 56 mmHg and 52 mmHg and 47 mmHg and 43 mmHg; Intraocular pressure (mmHg) at the time (min): 180 [2]: 56 mmHg and 51 mmHg and 48 mmHg and 43 mmHg; Intraocular pressure (mmHg) at the time (min): 240 [2]: 55 mmHg and 52 mmHg and 47 mmHg and 41 mmHg; Intraocular pressure (mmHg) at the time (min): 0 [2]: 55 mmHg and 52 mmHg and 47 mmHg and 42 mmHg; IC50 [3]: > 10 µM; Intraocular pressure after topical administration to rabbits [4]: did not detect any significant effect |
| COC(=O)C1=C(C)NC(C)=C(C(=O)OC)C1c1ccccc1[N+](=O)[O-] [nifedipine] | 14.7 ± 1.2 | 13.7 ± 0.9 | 15.5 ± 0.6 | 16.0 ± 1.5 | 16.5 ± 1.7 | 16 ± 0 | 15.7 ± 1.7 | 15 mmHg (2×) and 13 mmHg and 16 mmHg | 14 mmHg and 13 mmHg (2×) and 15 mmHg | 16 mmHg (2×) and 15 mmHg (2×) | 16 mmHg | 17 mmHg (2×) and 15 mmHg (2×) | 17 mmHg (2×) and 14 mmHg and 18 mmHg | 16 mmHg and 15 mmHg and 14 mmHg and 18 mmHg | 47.7 ± 7.18 | 46.75 ± 6.13 | 46.5 ± 6.19 | 47.0 ± 5.47 | 48.00 ± 4.98 | 48.00 ± 4.96 | Intraocular pressure (mmHg) at the time (min): 0, average ± S.D. [2]: 48.0 ± 5.47 mmHg; Intraocular pressure (mmHg) at the time (min): 30 [2]: 55 mmHg and 52 mmHg and 45 mmHg and 39 mmHg; Intraocular pressure (mmHg) at the time (min): 60 [2]: 53 mmHg and 50 mmHg and 45 mmHg and 39 mmHg; Intraocular pressure (mmHg) at the time (min): 90 [2]: 52 mmHg and 50 mmHg and 46 mmHg and 38 mmHg; Intraocular pressure (mmHg) at the time (min): 120 [2]: 53 mmHg and 49 mmHg and 46 mmHg and 40 mmHg; Intraocular pressure (mmHg) at the time (min): 180 [2]: 54 mmHg and 48 mmHg and 45 mmHg and 41 mmHg; Intraocular pressure (mmHg) at the time (min): 240 [2]: 54 mmHg and 49 mmHg and 47 mmHg and 42 mmHg; Intraocular pressure (mmHg) at the time (min): 0 [2]: 54 mmHg and 50 mmHg and 47 mmHg and 41 mmHg; IC50 [3]: > 10 µM; Corneal swelling / alteration of corneal thickness, in words [5]: No significant effect |
